{"source": "patent US4118585A", "about": "“Anionic benzene tetrakis carbonylimino isophthalic acid salts” (priority 1977, dated 1978)", "key": {"[1]": {"tested_on": "shunt pathway activated by cobra venom factor", "experiment": "Test, Code 036 (C-Shunt inhibitor)", "format": "cell-based", "conditions": "serial two-fold dilution assay; fragile human erythrocytes in autologous serum", "description": "(§1) An active inhibitor protects C2 from C1 and C4; (ii) Test, Code 035 (C3-C9 inhibitor) -- This test determines the ability of the late components of human complement (C3-C9) to lyse EAC 142 in the presence of appropriate dilutions of the test compound. An active inhibitor protects EAC 142 from lysis by human C3-C9; (iii) Test, Code 036 (C-Shunt inhibitor) -- In this test human erythrocytes rendered fragile are lysed in autologous serum via the shunt pathway activated by cobra venom factor in the presence of appropriate dilutions of the test compound. Inhibition of the shunt pathway results in failure of lysis; (iv) Forssman Vasculitis Test -- Here, the well known complement dependent lesion, Forssman vasculitis, is produced in guinea pigs by intradermal injection of rabbit anti-Forssman antiserum. […]"}, "[2]": {"tested_on": "late components of human complement (C3-C9)", "experiment": "Test, Code 035 (C3-C9 inhibitor)", "format": "biochemical", "set-up": "key: N=Negative", "conditions": "serial two-fold dilution assay; lysis of EAC 142 by human C3-C9", "description": "as §1"}, "[3]": {"tested_on": "activated human C1", "experiment": "Test, Code 026 (C1 inhibitor)", "format": "biochemical", "conditions": "serial two-fold dilution assay; higher well number indicates higher activity", "description": "as §1"}}, "data": [{"smiles": "O=C([O-])c1cc(NC(=O)c2cc(C(=O)Nc3cc(C(=O)[O-])cc(C(=O)[O-])c3)c(C(=O)Nc3cc(C(=O)[O-])cc(C(=O)[O-])c3)cc2C(=O)Nc2cc(C(=O)[O-])cc(C(=O)[O-])c2)cc(C(=O)[O-])c1.[Na+].[Na+].[Na+].[Na+].[Na+].[Na+].[Na+].[Na+]", "note": "[5,5',5\",5'\"-[1,2,4,5-Benzenetetrayltetrakis(carbonylimino)]-tetraisophthalic acid octasodium salt]", "values": [{"measurement": "Shunt Inhibition 036 Wells", "setting": "[1]", "value": "+3 Wells"}, {"measurement": "C-Late 035 Wells", "setting": "[2]", "value": "N"}, {"measurement": "Cl 026 Wells", "setting": "[3]", "value": "+7 Wells"}]}]}
